From ChEMBL document CHEMBL1201862, “PubChem BioAssay data set” (2004)
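Exposure lasted 48 hours, with cells grown in 96-well plates and compounds tested at five concentrations. GI50 = concentration required for 50% inhibition of growth.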 The source made the active and inactive calls. Cut-off read from the data, not from the text of the source: active = GI50 up to about 1.1 µM and inactive = higher.

Assays:
Experiment in all cases: inhibition of tumour cell growth, NCI panel, 48 h
HCT-116 = system: HCT-116
MOLT-4 = system: MOLT-4
T47D = system: T47D
K562 = system: K562
SF-268 = system: SF-268
RXF 393 = system: RXF 393
OVCAR-8 = system: OVCAR-8
SK-MEL-2 = system: SK-MEL-2
HOP-92 = system: HOP-92
COLO 205 = system: COLO 205
UACC-62 = system: UACC-62
MCF7 = system: MCF7
MDA-N = system: MDA-N
Hs-578T = system: Hs-578T
HOP-62 = system: HOP-62
NCI-H460 = system: NCI-H460
SN12C = system: SN12C
HCC 2998 = system: HCC 2998
RPMI-8226 = system: RPMI-8226
SR = system: SR
HL-60 = system: HL-60
SF-539 = system: SF-539
786-0 = system: 786-0
IGROV-1 = system: IGROV-1
UO-31 = system: UO-31
OVCAR-5 = system: OVCAR-5
KM12 = system: KM12
SK-OV-3 = system: SK-OV-3
SK-MEL-28 = system: SK-MEL-28
Malme-3M = system: Malme-3M
A498 = system: A498
SNB-19 = system: SNB-19
ACHN = system: ACHN
TK-10 = system: TK-10
PC-3 = system: PC-3
MDA-MB-435 = system: MDA-MB-435
OVCAR-4 = system: OVCAR-4
CAKI-1 = system: CAKI-1
BT-549 = system: BT-549
M14 = system: M14
SNB-75 = system: SNB-75
CCRF-CEM = system: CCRF-CEM
DU-145 = system: DU-145
NCI-H522 = system: NCI-H522
U-251 = system: U-251
SW-620 = system: SW-620
A549 = system: A549
NCI-H23 = system: NCI-H23
EKVX = system: EKVX
LOX IMVI = system: LOX IMVI
HCT-15 = system: HCT-15
SK-MEL-5 = system: SK-MEL-5
MDA-MB-231 = system: MDA-MB-231
UACC-257 = system: UACC-257
OVCAR-3 = system: OVCAR-3
NCI/ADR-RES = system: NCI/ADR-RES
SF-295 = system: SF-295
NCI-H226 = system: NCI-H226
HT-29 = system: HT-29

C=C[C@@]1(C)CC(=O)[C@]2(O)[C@@]3(C)[C@@H](O)CCC(C)(C)[C@@H]3[C@H](O)[C@@H](OC(C)=O)[C@@]2(C)O1
GI50 (HCT-116): > 100 µM (inactive)
GI50 (MOLT-4): 30.2 µM (inactive)
GI50 (T47D): 54.5 µM (inactive)
GI50 (K562): > 100 µM (inactive)
GI50 (SF-268): > 100 µM (inactive)
GI50 (RXF 393): 11.2 µM (inactive)
GI50 (OVCAR-8): > 100 µM (inactive)
GI50 (SK-MEL-2): > 100 µM (inactive)
GI50 (HOP-92): > 100 µM (inactive)
GI50 (COLO 205): > 100 µM (inactive)
GI50 (UACC-62): > 100 µM (inactive)
GI50 (MCF7): 22.1 µM (inactive)
GI50 (MDA-N): > 100 µM (inactive)
GI50 (Hs-578T): 70.1 µM (inactive)
GI50 (HOP-62): > 100 µM (inactive)
GI50 (NCI-H460): > 100 µM (inactive)
GI50 (SN12C): 57.7 µM (inactive)
GI50 (HCC 2998): > 100 µM (inactive)
GI50 (RPMI-8226): 18.7 µM (inactive)
GI50 (SR): > 100 µM (inactive)
GI50 (HL-60): 48.6 µM (inactive)
GI50 (SF-539): > 100 µM (inactive)
GI50 (786-0): > 100 µM (inactive)
GI50 (IGROV-1): > 100 µM (inactive)
GI50 (UO-31): 60.4 µM (inactive)
GI50 (OVCAR-5): 72.6 µM (inactive)
GI50 (KM12): 1.7 µM (inactive)
GI50 (SK-OV-3): 95.1 µM (inactive)
GI50 (SK-MEL-28): > 100 µM (inactive)
GI50 (Malme-3M): > 100 µM (inactive)
GI50 (A498): > 100 µM (inactive)
GI50 (SNB-19): > 100 µM (inactive)
GI50 (ACHN): > 100 µM (inactive)
GI50 (TK-10): > 100 µM (inactive)
GI50 (PC-3): > 100 µM (inactive)
GI50 (MDA-MB-435): > 100 µM (inactive)
GI50 (OVCAR-4): > 100 µM (inactive)
GI50 (CAKI-1): 27.1 µM (inactive)
GI50 (BT-549): > 100 µM (inactive)
GI50 (M14): > 100 µM (inactive)
GI50 (SNB-75): > 100 µM (inactive)
GI50 (CCRF-CEM): > 100 µM (inactive)
GI50 (DU-145): > 100 µM (inactive)
GI50 (NCI-H522): > 100 µM (inactive)
GI50 (U-251): > 100 µM (inactive)
GI50 (SW-620): > 100 µM (inactive)
GI50 (A549): > 100 µM (inactive)
GI50 (NCI-H23): > 100 µM (inactive)
GI50 (EKVX): > 100 µM (inactive)
GI50 (LOX IMVI): > 100 µM (inactive)
GI50 (HCT-15): > 100 µM
GI50 (SK-MEL-5): > 100 µM (inactive)
GI50 (MDA-MB-231): 6.18 µM (inactive)
GI50 (UACC-257): > 100 µM (inactive)
GI50 (OVCAR-3): > 100 µM (inactive)
GI50 (NCI/ADR-RES): > 100 µM (inactive)
GI50 (SF-295): > 100 µM (inactive)
GI50 (NCI-H226): > 100 µM (inactive)
GI50 (HT-29): 68.7 µM (inactive)

O=C1CSC(c2cccs2)N1c1nc2cc3sc(N4C(=O)CSC4c4cccs4)nc3cc2s1 (stereo not drawn)
GI50 (HCT-116): 38.4 µM (inactive)
GI50 (MOLT-4): 6.4 µM (inactive)
GI50 (T47D): > 50 µM (inactive)
GI50 (K562): 34.5 µM (inactive)
GI50 (SF-268): > 50 µM (inactive)
GI50 (RXF 393): > 50 µM (inactive)
GI50 (OVCAR-8): > 50 µM (inactive)
GI50 (SK-MEL-2): > 50 µM (inactive)
GI50 (HOP-92): > 50 µM (inactive)
GI50 (COLO 205): 1.21 µM (inactive)
GI50 (UACC-62): > 50 µM (inactive)
GI50 (MCF7): 15.9 µM (inactive)
GI50 (MDA-N): > 50 µM (inactive)
GI50 (Hs-578T): > 50 µM (inactive)
GI50 (HOP-62): > 50 µM (inactive)
GI50 (NCI-H460): 3.04 µM (inactive)
GI50 (SN12C): 26.4 µM (inactive)
GI50 (HCC 2998): > 50 µM (inactive)
GI50 (RPMI-8226): > 50 µM (inactive)
GI50 (SR): 5.45 µM (inactive)
GI50 (HL-60): > 50 µM (inactive)
GI50 (SF-539): 0.753 µM (active)
GI50 (786-0): > 50 µM (inactive)
GI50 (IGROV-1): 32.3 µM (inactive)
GI50 (UO-31): 30.9 µM (inactive)
GI50 (OVCAR-5): > 50 µM (inactive)
GI50 (KM12): > 50 µM (inactive)
GI50 (SK-OV-3): > 50 µM (inactive)
GI50 (SK-MEL-28): > 50 µM (inactive)
GI50 (Malme-3M): > 50 µM (inactive)
GI50 (A498): > 50 µM (inactive)
GI50 (SNB-19): > 50 µM (inactive)
GI50 (ACHN): > 50 µM (inactive)
GI50 (TK-10): > 50 µM (inactive)
GI50 (PC-3): 47.9 µM (inactive)
GI50 (MDA-MB-435): > 50 µM (inactive)
GI50 (OVCAR-4): > 50 µM (inactive)
GI50 (CAKI-1): 47.4 µM (inactive)
GI50 (BT-549): > 50 µM (inactive)
GI50 (M14): > 50 µM (inactive)
GI50 (SNB-75): > 50 µM (inactive)
GI50 (CCRF-CEM): 25.2 µM (inactive)
GI50 (DU-145): > 50 µM (inactive)
GI50 (NCI-H522): 13.2 µM (inactive)
GI50 (U-251): 40.9 µM (inactive)
GI50 (SW-620): 16.2 µM (inactive)
GI50 (A549): 4.23 µM (inactive)
GI50 (NCI-H23): 28.8 µM (inactive)
GI50 (EKVX): 16 µM (inactive)
GI50 (LOX IMVI): 29.5 µM (inactive)
GI50 (HCT-15): 33.4 µM
GI50 (SK-MEL-5): 22.5 µM (inactive)
GI50 (MDA-MB-231): > 50 µM (inactive)
GI50 (UACC-257): > 50 µM (inactive)
GI50 (OVCAR-3): > 50 µM (inactive)
GI50 (NCI/ADR-RES): 43.1 µM (inactive)
GI50 (SF-295): > 50 µM (inactive)
GI50 (NCI-H226): 6.38 µM (inactive)
GI50 (HT-29): 11.9 µM (inactive)
